Results as given in article PMC8955265, “Systematic Discovery of FBXW7-Binding Phosphodegrons Highlights Mitogen-Activated Protein Kinases as Important Regulators of Intracellular Protein Levels” (International Journal of Molecular Sciences, 2022).

Test system: FBXW7
Test: Ratiometric EGFP/DsRed protein degradation assay with degron probes
Assay type: cell-based, human
Settings: putative degron motif in EGFP-fused probe with AAKG2 MAPK docking motif; HEK293T, 48 h after transfection, EGFP/DsRed ratio with and without FBXW7 plasmid; search cycles 1-4
From the text: In order to be able to test putative phosphodegron motifs, a ratiometric protein level monitoring method was adapted to monitor MAPK controlled FBXW7 mediated protein degradation. Briefly, intact DsRed and an EGFP-chimera were expressed in HEK293T cells in equal amounts from an expression plasmid, giving an EGFP/DsRed fluorescence ratio close to one under non-degrading conditions. EGFP was fused to a probe comprised of a putative degron sequence and a known MAPK binding docking motif. EGFP signal is expected to diminish faster than DsRed in cells with more FBXW7 if the probe responded to degradation.
We started out from an intentionally general consensus motif of FBXW7 degrons, inspired by the liberal [TS]P..[TS]P pattern defined for yeast Cdc4 substrates, and scanned the human disordered part of the proteome using SliMSearch4 (the disorder score cut-off was 0.4 and flank length was 5). In all, 22 motifs from this list were subjectively chosen and tested in the ratiometric degradation assay giving only 5 positives (see Supplementary Table S1). Based on the results of this first round, by taking information both from the identified positives and negatives, the consensus motif definition was narrowed to requiring a proline at P + 2, but motifs were allowed to have a phospho-mimicking residue (D or E) at P + 4 because it had been formerly reported that this second phosphorylatable residue may be replaced by aspartate or glutamate. […] In the third round, hydrophobic amino acids were more strictly required at positions −1/−2 and P − 1/2/3 positions were further narrowed and P + 4 position was relaxed based on the identified negatives, which gave a higher hit rate (4 out of 6). This third round gave functional motifs at a good rate, but the used motif definition was very restrictive compared to other known motifs. Finally, in the fourth round, we gave up using an optimal consensus and established the positional relaxation model. […] Hits on this final, most predictive list are presented in Supplementary Table S2. All entries were filtered for motif locations by UniProt annotations, discarding all enzyme-inaccessible (e.g., extracellular) instances. Motifs that had any overlapping PFAM domain indicated were manually assessed using the AlphaFold EBI website. Out of these, only motifs that were highly accessible and located outside of confidently predicted folded domains were kept. We also added kinase consensus compatibility to every motif and the number of experiments where phosphorylation could be detected from PhosphoSitePlus.
The chimera degron module was ordered from IDT as gene Block (gBlock). It consisted of a coiled coil dimerization motif (GCN4: EELLSKNYHLENEVARLKK) to increase sensitivity by allowing multivalent binding, a MAPK binding docking motif (AAKG2: KKNASQKRRSLRVHIPDL), and the CycECO degron motif. The motifs were separated by Gly-Ser-Asn linkers and the gBlock was designed so that the motifs could be easily changed by using unique sets of restriction endonucleases. The gBlock was sub-cloned into the Gateway pENTR4 entry plasmid (Thermo Fisher, Waltham, MA, USA) using restriction enzymes (SalI and NotI). The pENTR4-chimera and the destination plasmid (MSCV-CMV-DsRed-IRES-EGFP-DEST from Addgene; 41941), [28]) were subjected to gateway cloning using LR clonase II enzyme (Invitrogen) to obtain the first DsRed-EGFP-chimera DNA construct containing the cycECO degron. Oligonucleotides corresponding to different degron sequences and docking motifs were ligated into the DsRed-EGFP-chimera DNA construct. The list of all the oligonucleotides used for cloning is provided in Supplementary Table S3. pcDNA3-FLAG-FBXW7α was a kind gift from Michael Pagano (New York University). The FBXW7 arginine mutant (Arg mutant: R465C; R479Q; R505L) was created using two-step PCR and cloned into the pcDNA3-FLAG plasmid. […]

Sequence	Outcome
KTGEQTPPHEHICLRDELP [JIP1, putative FBXW7 degron motif tested as EGFP-fused degradation probe]	Negative
LGPVHPTPPPSSPQEP [KMT2D-a, putative FBXW7 degron motif tested as EGFP-fused degradation probe]	Negative
MVQRLGLISPPASQVSTA [GLIS3, putative FBXW7 degron motif tested as EGFP-fused degradation probe]	Negative
NYGARPPPTPPASPPPSV [KMT2E, putative FBXW7 degron motif tested as EGFP-fused degradation probe]	Positive (tested positive, where +FBXW7/control protein level ratio was lower than 1)
PLGPPATPPGSPPCSLL [PKMYT1, putative FBXW7 degron motif tested as EGFP-fused degradation probe]	Negative
PPEESPLSPPPEASRLS [KMT2D-b, putative FBXW7 degron motif tested as EGFP-fused degradation probe]	Negative
PPLQVPPSPPASPPMSPS [PRR36, putative FBXW7 degron motif tested as EGFP-fused degradation probe]	Positive (tested positive, where +FBXW7/control protein level ratio was lower than 1)
PRPPRPPSPPPEPETTD [SETD1B, putative FBXW7 degron motif tested as EGFP-fused degradation probe]	Negative
PSFPPTPPTPPASPPHTPV [EIF4G3, putative FBXW7 degron motif tested as EGFP-fused degradation probe]	Positive (tested positive, where +FBXW7/control protein level ratio was lower than 1)
PSTTVGSHSPPETPVLTR [ZMYND1 or 8, putative FBXW7 degron motif tested as EGFP-fused degradation probe]	Negative
QGQKVGSLTPPSSPKTQRA [AAK1, putative FBXW7 degron motif tested as EGFP-fused degradation probe]	Negative
QGYLSPESSPPASPVPACS [CREB5, putative FBXW7 degron motif tested as EGFP-fused degradation probe]	Negative
QQAPLTPPNTPDPRSPPNPDNIA [Myozenin2, putative FBXW7 degron motif tested as EGFP-fused degradation probe]	Positive (tested positive, where +FBXW7/control protein level ratio was lower than 1)
RPALPATPPATPPAASP [CDT1, putative FBXW7 degron motif tested as EGFP-fused degradation probe]	Positive (tested positive, where +FBXW7/control protein level ratio was lower than 1)
SAVQTPPSPPVSPRVLS [PCARE, putative FBXW7 degron motif tested as EGFP-fused degradation probe]	Negative
SDLDKTPPPSPPPEED [CHD7, putative FBXW7 degron motif tested as EGFP-fused degradation probe]	Negative
SPFHGSSPPQSTPLSPPPLTPK [DOCK5, putative FBXW7 degron motif tested as EGFP-fused degradation probe]	Negative
SPGDSPPGTPPASPPSSAWQ [TBC1D4, putative FBXW7 degron motif tested as EGFP-fused degradation probe]	Negative
SRNHSPSPPVTPTGAA [NHSL1, putative FBXW7 degron motif tested as EGFP-fused degradation probe]	Negative
STKRKPRVSPPASPTLEVE [SH3RF1, putative FBXW7 degron motif tested as EGFP-fused degradation probe]	Negative
TANLPPSPPPSPASEQT [MAP2, putative FBXW7 degron motif tested as EGFP-fused degradation probe]	Positive (tested positive, where +FBXW7/control protein level ratio was lower than 1)
